Assay results from patent publication US20260008818A1, “CYCLIC PEPTIDE OR SALT THEREOF, AND USES THEREOF” (FUJIFILM Corporation, priority 2023, published 2026).
Each block holds one substance with its values, some of them ahead of it. Bridge positions count the residues as written; N and C are the ends. Ends that are not written are not given here. COCH2 = acetyl group that carries the bridge

System: Recombinant Human FGFR1 alpha (IIIc) Fc Chimera Protein
Experiment: Binding affinity of enzymatically synthesized cyclic peptide to FGFR by ELISA
Conditions: luminescence signal at reaction concentration 10 nmol/L, SEQ ID NO: 39 standardized to 1, enzyme synthesis product
In short: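 Plate-immobilized FGFR1α(IIIc)-Fc (5 ng/well) incubated with Myc-tagged cyclic peptide 3 h at room temperature; bound peptide detected with anti-Myc antibody (2 h) and chemiluminescence. Signal is FGFR minus no-FGFR wells, normalized to SEQ ID NO: 39 at 10 nmol/L and graded A–D.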

Substance: 39 (HCSYERLQFHGHEAPFRVKV; also: cyclic peptide, ring not given here) [compound 39]
Evaluation result of binding affinity to FGFR: A (0.7 or more)

Substance: 147 (HCSYERLIFHGHEAPFRVK(COCH2)V; thioether 2-19 (inferred)) [compound 147]
Evaluation result of binding affinity to FGFR: A (0.7 or more)

Substance: 184 (HCSYERLQFHGHNAPFRVK(COCH2)V; thioether 2-19 via Ac) [compound 184]
Evaluation result of binding affinity to FGFR: A (0.7 or more)

Substance: 105 (HCSYERLQFHFHEAPFRVK(COCH2)V; thioether 2-19 (inferred)) [compound 105]
Evaluation result of binding affinity to FGFR: C (0.1 or more and less than 0.5)

Substance: 151 (HCSYERLWFHGHEAPFRVK(COCH2)V; thioether 2-19 (inferred)) [compound 151]
Evaluation result of binding affinity to FGFR: A (0.7 or more)

Substance: 189 (HCSYERLQFHGHRAPFRVK(COCH2)V; thioether 2-19 via Ac) [compound 189]
Evaluation result of binding affinity to FGFR: A (0.7 or more)

Substance: 79 (DCSYERLQFHGHEAPFRVKV; not fully specified; Description of Artificial Sequence: Cyclic peptide) [compound 79]
Evaluation result of binding affinity to FGFR: A (0.7 or more)

Substance: 77 (SCSYERLQFHGHEAPFRVK(COCH2)V; thioether 2-19 (inferred)) [compound 77]
Evaluation result of binding affinity to FGFR: A (0.7 or more)

Substance: 181 (HCSYERLQFHGHFAPFRVK(COCH2)V; thioether 2-19 via Ac) [compound 181]
Evaluation result of binding affinity to FGFR: A (0.7 or more)

Substance: 123 (HCSYIRLQFHGHEAPFRVK(COCH2)V; thioether 2-19 (inferred)) [compound 123]
Evaluation result of binding affinity to FGFR: B (0.5 or more and less than 0.7)

Substance: 167 (HCSYERLQFFGHEAPFRVK(COCH2)V; thioether 2-19 (inferred)) [compound 167]
Evaluation result of binding affinity to FGFR: A (0.7 or more)

Substance: 122 (HCSYLRLQFHGHEAPFRVK(COCH2)V; thioether 2-19 (inferred)) [compound 122]
Evaluation result of binding affinity to FGFR: C (0.1 or more and less than 0.5)

Substance: 182 (HCSYERLQFHGHYAPFRVK(COCH2)V; thioether 2-19 via Ac) [compound 182]
Evaluation result of binding affinity to FGFR: A (0.7 or more)

Substance: 203 (HCSYERLQFHGHEAPFRIK(COCH2)V; thioether 2-19 via Ac; not fully specified) [compound 203]
Evaluation result of binding affinity to FGFR: A (0.7 or more)

Substance: 40 (QCDVWYWLGHRVPFHPVK(COCH2)V; thioether 2-18 (inferred)) [compound 40]
Evaluation result of binding affinity to FGFR: B (0.5 or more and less than 0.7)

Substance: 152 (HCSYERLNFHGHEAPFRVK(COCH2)V; thioether 2-19 (inferred)) [compound 152]
Evaluation result of binding affinity to FGFR: A (0.7 or more)

Substance: 132 (HCSYDRLQFHGHEAPFRVK(COCH2)V; thioether 2-19 (inferred)) [compound 132]
Evaluation result of binding affinity to FGFR: B (0.5 or more and less than 0.7)

Substance: 49 (HCEWTQLIYYGFSAPYIVK(COCH2)R; thioether 2-19 (inferred)) [compound 49]
Evaluation result of binding affinity to FGFR: C (0.1 or more and less than 0.5)

Substance: 177 (HCSYERLQFHGHPAPFRVK(COCH2)V; thioether 2-19 (inferred)) [compound 177]
Evaluation result of binding affinity to FGFR: A (0.7 or more)

Substance: 183 (HCSYERLQFHGHWAPFRVK(COCH2)V; thioether 2-19 via Ac) [compound 183]
Evaluation result of binding affinity to FGFR: A (0.7 or more)

Substance: 106 (HCSYERLQFHWHEAPFRVK(COCH2)V; thioether 2-19 (inferred)) [compound 106]
Evaluation result of binding affinity to FGFR: C (0.1 or more and less than 0.5)

Substance: 44 (FCPHIFLGHNAPFLVQK(COCH2)V; thioether 2-17 (inferred)) [compound 44]
Evaluation result of binding affinity to FGFR: A (0.7 or more)

Substance: 86 (HCVYERLQFHGHEAPFRVKV; not fully specified; Description of Artificial Sequence: Cyclic peptide) [compound 86]
Evaluation result of binding affinity to FGFR: A (0.7 or more)

Substance: 67 (GCSYERLQFHGHEAPFRVK(COCH2)V; thioether 2-19 (inferred)) [compound 67]
Evaluation result of binding affinity to FGFR: A (0.7 or more)

Substance: 48 (HCKVQQLWLQGHYAPYWVK(COCH2)S; thioether 2-19 (inferred)) [compound 48]
Evaluation result of binding affinity to FGFR: C (0.1 or more and less than 0.5)

Substance: 43 (SCWQQLVWFQFEAPFLVK(COCH2)V; thioether 2-18 (inferred)) [compound 43]
Evaluation result of binding affinity to FGFR: C (0.1 or more and less than 0.5)

Substance: 197 (HCSYERLQFHGHEAPFNVK(COCH2)V; thioether 2-19 via Ac) [compound 197]
Evaluation result of binding affinity to FGFR: A (0.7 or more)

Substance: 38 (WCQLVWQGHKAPYLTLK(COCH2)L; thioether 2-17) [compound 38]
Evaluation result of binding affinity to FGFR: B (0.5 or more and less than 0.7)

Substance: 150 (HCSYERLYFHGHEAPFRVK(COCH2)V; thioether 2-19 (inferred)) [compound 150]
Evaluation result of binding affinity to FGFR: A (0.7 or more)

Substance: 35 (CDRTLLYYRLSC; disulfide 1-12 (inferred)) [compound 35]
Evaluation result of binding affinity to FGFR: D (less than 0.1)

Second part, the substance after the results:

Evaluation result of binding affinity to FGFR: C (0.1 or more and less than 0.5)
Substance: 315 (HCTYERLIFLGHIAPFWVK(COCH2)R; thioether 2-19 (inferred)) [compound 315]

Evaluation result of binding affinity to FGFR: B (0.5 or more and less than 0.7)
Substance: 262 (FCYQRLYFQGHIAPYWFVK(COCH2)D; thioether 2-19 (inferred)) [compound 262]

Evaluation result of binding affinity to FGFR: C (0.1 or more and less than 0.5)
Substance: 341 (ACLPFLRIIIAGHWAPFLAK(COCH2)H; thioether 2-20) [compound 341]

Evaluation result of binding affinity to FGFR: A (0.7 or more)
Substance: 242 (HK(COCH2)TWERLIFLGHIAPFWVCS; thioether 2-19 (inferred)) [compound 242]

Evaluation result of binding affinity to FGFR: A (0.7 or more)
Substance: 216 (HCSYERLQFHGHEAPFRVK(COCH2)N; thioether 2-19 via Ac; not fully specified) [compound 216]

Evaluation result of binding affinity to FGFR: C (0.1 or more and less than 0.5)
Substance: 361 (QCPWSTTQQVPFIK(COCH2)V; thioether 2-14) [compound 361]

Evaluation result of binding affinity to FGFR: A (0.7 or more)
Substance: 286 (HCSYEKLQFHGHEAPFRVK(COCH2)V; thioether 2-19 (inferred)) [compound 286]

Evaluation result of binding affinity to FGFR: B (0.5 or more and less than 0.7)
Substance: 259 (GCRPVVTHHPWAPFWVVTK(COCH2)E; thioether 2-19 (inferred)) [compound 259]

Evaluation result of binding affinity to FGFR: C (0.1 or more and less than 0.5)
Substance: 265 (FCQFETLKFFGWEAPYLVK(COCH2)L; thioether 2-19 (inferred)) [compound 265]

Evaluation result of binding affinity to FGFR: B (0.5 or more and less than 0.7)
Substance: 256 (NCWGYHYTIPFIK(COCH2)F; thioether 2-13 (inferred)) [compound 256]

Evaluation result of binding affinity to FGFR: C (0.1 or more and less than 0.5)
Substance: 227 (YK(COCH2)TWERLIFLGHIAPFWVCR; thioether 2-19 (inferred)) [compound 227]

Evaluation result of binding affinity to FGFR: C (0.1 or more and less than 0.5)
Substance: 355 (RCYFSRQGFWPFTYKLPFWVK(COCH2)H; thioether 2-21) [compound 355]

Evaluation result of binding affinity to FGFR: C (0.1 or more and less than 0.5)
Substance: 278 (SCIVPLYIYGWRAPYWLK(COCH2)V; thioether 2-18 (inferred)) [compound 278]

Evaluation result of binding affinity to FGFR: C (0.1 or more and less than 0.5)
Substance: 225 (HCTWERLIFLGHIAPFWVK(COCH2)R; thioether 2-19 (inferred)) [compound 225]

Evaluation result of binding affinity to FGFR: C (0.1 or more and less than 0.5)
Substance: 308 (HCSYERLQFHGHEAPFRMK(COCH2)V; thioether 2-19 (inferred)) [compound 308]

Evaluation result of binding affinity to FGFR: A (0.7 or more)
Substance: 218 (HCSYERLQFHGHEAPFRVK(COCH2)S; thioether 2-19 via Ac; not fully specified) [compound 218]

Evaluation result of binding affinity to FGFR: C (0.1 or more and less than 0.5)
Substance: 273 (QCYVQLYVWGHPAPFYWDK(COCH2)N; thioether 2-19 (inferred)) [compound 273]

Evaluation result of binding affinity to FGFR: C (0.1 or more and less than 0.5)
Substance: 293 (HCSYERLQFHGHEAPFRKK(COCH2)V; thioether 2-19 (inferred)) [compound 293]

Evaluation result of binding affinity to FGFR: C (0.1 or more and less than 0.5)
Substance: 204 (HCSYERLQFHGHEAPFRFK(COCH2)V; thioether 2-19 via Ac; not fully specified) [compound 204]

Evaluation result of binding affinity to FGFR: C (0.1 or more and less than 0.5)
Substance: 207 (HCSYERLQFHGHEAPFRSK(COCH2)V; thioether 2-19 via Ac; not fully specified) [compound 207]

Evaluation result of binding affinity to FGFR: B (0.5 or more and less than 0.7)
Substance: 365 (NCWGYTYIIPFNYISK(COCH2)T; thioether 2-16) [compound 365]

Evaluation result of binding affinity to FGFR: B (0.5 or more and less than 0.7)
Substance: 252 (LCRVVLNGWIAPFWTIK(COCH2)E; thioether 2-17 (inferred)) [compound 252]

Evaluation result of binding affinity to FGFR: B (0.5 or more and less than 0.7)
Substance: 233 (HK(COCH2)TWERLVFLGHIAPFWVCR; thioether 2-19 (inferred)) [compound 233]

Evaluation result of binding affinity to FGFR: B (0.5 or more and less than 0.7)
Substance: 290 (HCSYERLQFHGHKAPFRVK(COCH2)V; thioether 2-19 (inferred)) [compound 290]

Evaluation result of binding affinity to FGFR: A (0.7 or more)
Substance: 309 (HCSYERLQFHGHEAPFRVK(COCH2)M; thioether 2-19 (inferred)) [compound 309]

Evaluation result of binding affinity to FGFR: B (0.5 or more and less than 0.7)
Substance: 248 (QCWKRVRVYGFFAPFVHK(COCH2)I; thioether 2-18 (inferred)) [compound 248]
